Values joined by “and” are separate entries in the source; they are usually repeats but may differ in a detail not shown here. Equal values may be shown once.
Tests used:
PYR1^WIN-M = molecular target: T1, PYR1^WIN-M (Arabidopsis thaliana, UniProt O49686, A160I/D26G/E4G/F159A/H60P/K59Q/N90S/Y23H); test: ELISA-like plate assay, immobilized PYR1^WIN-M, biotinylated ΔN-HAB1^T+; format: binding; conditions: for ELISA signal generation, receptor cross-reactivity (source data): replicates; for LOD (lower limit of detection): fivefold dilution
T1 construct: made in house
T1 sequence (O49686 with tags, fused parts or gaps E4G/Y23H/D26G/K59Q/H60P/N90S/F159A/A160I): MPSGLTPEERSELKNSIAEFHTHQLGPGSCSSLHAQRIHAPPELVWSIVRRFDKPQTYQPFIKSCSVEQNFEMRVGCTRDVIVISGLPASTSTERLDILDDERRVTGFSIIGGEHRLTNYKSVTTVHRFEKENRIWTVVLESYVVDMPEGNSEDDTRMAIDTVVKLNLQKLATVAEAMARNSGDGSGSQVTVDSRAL

PYR1^PIRI = molecular target: T2, PYR1^PIRI (Arabidopsis thaliana, UniProt O49686, A160T/E130G/F159T/K59R/N119S/S122Q/S92M/V174A); test: Split NanoLuc luciferase complementation in yeast, NLuc^N-PYR1^PIRI/NLuc^C-HAB1;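 as to split luciferase luminescence (Fig. 4c source data): relative luminescence averaged over the signal plateau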; format: cell-based; conditions: replicates; for split luciferase luminescence (Fig. 4c source data): ligand pirimiphos-methyl
T2 construct: >PYR1-PIRI; expressed in transfected cells; host or cells: Saccharomyces cerevisiae BY4742

PYR1^DIAZI = PYR1^DIAZI (Arabidopsis thaliana, UniProt O49686, A160V/E8G/F108Y/F159G/L87M/M158V/V81Y); test: Split NanoLuc luciferase complementation in yeast, NLuc^N-PYR1^DIAZI/NLuc^C-HAB1;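 as to split luciferase luminescence (Fig. 4c source data): relative luminescence averaged over the signal plateau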; format: cell-based; design: >PYR1-DIAZI; expressed in transfected cells; host or cells: Saccharomyces cerevisiae BY4742; conditions: for Sensor signal (Figure 4f top), replicate values: 3 replicates; for split luciferase luminescence (Fig. 4c source data): ligand diazinon, replicates
PYR1^DIAZI, sequence (Q9CAJ0 179-511): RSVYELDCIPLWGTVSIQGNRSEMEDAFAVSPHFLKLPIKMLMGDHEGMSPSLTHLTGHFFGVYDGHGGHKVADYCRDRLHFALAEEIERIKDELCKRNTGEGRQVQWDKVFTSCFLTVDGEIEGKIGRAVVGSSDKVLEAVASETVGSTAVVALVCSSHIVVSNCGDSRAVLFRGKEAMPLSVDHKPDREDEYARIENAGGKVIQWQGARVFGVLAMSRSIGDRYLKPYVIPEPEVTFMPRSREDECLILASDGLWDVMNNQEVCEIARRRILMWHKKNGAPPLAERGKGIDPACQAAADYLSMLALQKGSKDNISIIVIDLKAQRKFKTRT
PYR1^DIAZI, sequence (O49686 other isoform, or with tags, fused parts or gaps E8G/V81Y/L87M/F108Y/M158V/F159G/A160V): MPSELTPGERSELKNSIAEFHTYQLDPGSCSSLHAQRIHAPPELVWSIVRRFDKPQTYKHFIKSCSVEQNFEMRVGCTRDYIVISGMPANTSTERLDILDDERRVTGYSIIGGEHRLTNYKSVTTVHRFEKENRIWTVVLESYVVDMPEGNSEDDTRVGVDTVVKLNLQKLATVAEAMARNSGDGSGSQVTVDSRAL

T2 sequence (O49686 other isoform, or with tags, fused parts or gaps K59R/S92M/N119S/S122Q/E130G/F159T/A160T/V174A): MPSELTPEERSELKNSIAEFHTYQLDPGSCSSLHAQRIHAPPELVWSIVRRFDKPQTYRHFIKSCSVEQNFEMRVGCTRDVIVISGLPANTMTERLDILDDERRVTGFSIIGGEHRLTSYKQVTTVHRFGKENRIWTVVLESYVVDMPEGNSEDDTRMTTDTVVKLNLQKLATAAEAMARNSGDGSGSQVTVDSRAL
T2 sequence (Q9CAJ0 179-511, further chain): as the sequence (Q9CAJ0 179-511) above

**Q.** `CCCCCn1cc(C(=O)c2cccc3ccccc23)cc1-c1ccccc1C` [JWH-370] was tested. Which “ELISA signal generation, receptor cross-reactivity (source data)” value (from here on “ELISA signal generation”) (PYR1^WIN-M; cannabinoid at 2 nM) did it give?
**A.** 0.069 and 0.076 and 0.063

**Q.** And the “ELISA signal generation” value (PYR1^WIN-M; cannabinoid at 2 μM)?
**A.** 0.06 and 0.059 and 0.063

**Q.** With `CCCCCn1cc(C(=O)N2CCN(C)CC2)c2ccccc21` [Mepirapim] as the molecule, how does the “ELISA signal generation” value (PYR1^WIN-M; cannabinoid at 2 nM) read?
**A.** 0.117 and 0.158 and 0.176

**Q.** What about the “ELISA signal generation” value (PYR1^WIN-M; cannabinoid at 2 μM) of the same molecule?
**A.** 0.111 and 0.116 and 0.103

**Q.** Which results are given for `CCCCCn1cc(-c2nc(CN(CC)CC)cs2)c2ccccc21` [PTI-1]?
**A.** ELISA signal generation, receptor cross-reactivity (source data) (PYR1^WIN-M; cannabinoid at 2 nM): 0.097 and 0.112 and 0.193; ELISA signal generation, receptor cross-reactivity (source data) (PYR1^WIN-M; cannabinoid at 2 μM): 0.105 and 0.089 and 0.091

**Q.** For `CCOP(=O)(OCC)Oc1ccc([N+](=O)[O-])cc1` [Paraoxon], which “Sensor signal (Figure 4f bottom), replicate values” (“Sensor signal (Figure 4f bottom)” below) (PYR1^PIRI; [Agonist] 1e-5 nM) is on record?
**A.** 11.9047 and 18.1515 and 10.4931

**Q.** What about the “Sensor signal (Figure 4f bottom)” value (PYR1^PIRI; [Agonist] 0.5 nM) of the same molecule?
**A.** 11.0975 and 13.4157 and 8.837

**Q.** What about the “Sensor signal (Figure 4f bottom)” value (PYR1^PIRI; [Agonist] 1 nM) of the same molecule?
**A.** 12.5918 and 18.7436 and 9.615

**Q.** What about the “Sensor signal (Figure 4f bottom)” value (PYR1^PIRI; [Agonist] 10 nM) of the same molecule?
**A.** 11.1224 and 13.1225 and 9.775

**Q.** And the “Sensor signal (Figure 4f bottom)” value (PYR1^PIRI; [Agonist] 100 nM)?
**A.** 10.0591 and 11.6876 and 14.7625

**Q.** What about the “Sensor signal (Figure 4f bottom)” value (PYR1^PIRI; [Agonist] 1000 nM) of the same molecule?
**A.** 10.1585 and 20.7126 and 25.0764

**Q.** What about the “Sensor signal (Figure 4f bottom)” value (PYR1^PIRI; [Agonist] 10000 nM) of the same molecule?
**A.** 13.1804 and 18.2375 and 74.7884

**Q.** What about the “Sensor signal (Figure 4f bottom)” value (PYR1^PIRI; [Agonist] 100000 nM) of the same molecule?
**A.** 12.8083 and 10.7531 and 85.8371

**Q.** What about the “Sensor signal (Figure 4f top), replicate values” (shortened to “Sensor signal (Figure 4f top)”) (PYR1^DIAZI; [Agonist] 1e-5 nM) of the same molecule?
**A.** 10.8821 and 10.8818 and 16.2674

**Q.** What about the “Sensor signal (Figure 4f top)” value (PYR1^DIAZI; [Agonist] 0.5 nM) of the same molecule?
**A.** 11.8181 and 17.5251 and 16.6639

**Q.** What about the “Sensor signal (Figure 4f top)” value (PYR1^DIAZI; [Agonist] 1 nM) of the same molecule?
**A.** 24.3604 and 44.2392 and 23.2398

**Q.** What about the “Sensor signal (Figure 4f top)” value (PYR1^DIAZI; [Agonist] 10 nM) of the same molecule?
**A.** 60.5829 and 64.6146 and 19.0156

**Q.** And the “Sensor signal (Figure 4f top)” value (PYR1^DIAZI; [Agonist] 100 nM)?
**A.** 14.8147 and 62.8846 and 19.484

**Q.** And the “Sensor signal (Figure 4f top)” value (PYR1^DIAZI; [Agonist] 1000 nM)?
**A.** 35.1388 and 74.2295 and 30.1748

**Q.** And the “Sensor signal (Figure 4f top)” value (PYR1^DIAZI; [Agonist] 10000 nM)?
**A.** 83.5675 and 57.6349 and 70.6242

**Q.** And the “Sensor signal (Figure 4f top)” value (PYR1^DIAZI; [Agonist] 100000 nM)?
**A.** 100.899 and 20.8486 and 98.4357

**Q.** Which results are given for `CCCCCc1cc(O)c2c(c1)OC(C)(C)[C@@H]1CCC(C)=C[C@@H]21` [Δ^9-THC, tetrahydrocannabinol]?
**A.** ELISA signal generation, receptor cross-reactivity (source data) (PYR1^WIN-M; cannabinoid at 2 nM): 0.105 and 0.137 and 0.097; ELISA signal generation, receptor cross-reactivity (source data) (PYR1^WIN-M; cannabinoid at 2 μM): 0.116 and 0.081 and 0.066

B1: PYR1^WIN-M: monomeric PYR1-WIN for ELISA: Y23H, D26G, K59Q, H60P, N90S, F159A, A160I (protein, UniProt O49686 1-191, looked up, variant Y23H D26G K59Q H60P N90S F159A A160I)
Abscisic acid receptor PYR1: MPSELTPEERSELKNSIAEFHTHQLGPGSCSSLHAQRIHAPPELVWSIVRRFDKPQTYQPFIKSCSVEQNFEMRVGCTRDVIVISGLPASTSTERLDILDDERRVTGFSIIGGEHRLTNYKSVTTVHRFEKENRIWTVVLESYVVDMPEGNSEDDTRMAIDTVVKLNLQKLATVAEAMARNSGDGSGSQVT
**Q.** Which results are given for B1?
**A.** LOD (lower limit of detection) (PYR1^WIN-M; spiked blood serum): 1,105 pM; LOD (lower limit of detection) (PYR1^WIN-M; spiked saliva): 305 pM; LOD (lower limit of detection) (PYR1^WIN-M; spiked urine): 515 pM

B2: PYR1-diazi: diazinon-responsive heptuple PYR1 mutant (E8G, V81Y, L87M, F108Y, M158V, F159G, A160V) (protein)
chain: MPSELTPGERSELKNSIAEFHTYQLDPGSCSSLHAQRIHAPPELVWSIVRRFDKPQTYKHFIKSCSVEQNFEMRVGCTRDYIVISGMPANTSTERLDILDDERRVTGYSIIGGEHRLTNYKSVTTVHRFEKENRIWTVVLESYVVDMPEGNSEDDTRVGVDTVVKLNLQKLATVAEAMARNSGDGSGSQVT
modifications: left off: Gal4 DNA-binding domain (from the vector pBD), end not stated, kept
**Q.** B2 was tested. Which “split luciferase luminescence (Fig. 4c source data)” value (from here on “split luciferase luminescence”) (PYR1^DIAZI; [Ligand] (uM) 0.01) did it give?
**A.** 2.821 and 4.017 and 3.928

**Q.** What about the “split luciferase luminescence” value (PYR1^DIAZI; [Ligand] (uM) 0.1) of the same molecule?
**A.** 3.172 and 4.215 and 4.029

**Q.** What about the “split luciferase luminescence” value (PYR1^DIAZI; [Ligand] (uM) 1) of the same molecule?
**A.** 4.479 and 4.68 and 4.503

**Q.** And the “split luciferase luminescence” value (PYR1^DIAZI; [Ligand] (uM) 10)?
**A.** 10.058 and 10.652 and 11.029

**Q.** And the “split luciferase luminescence” value (PYR1^DIAZI; [Ligand] (uM) 100)?
**A.** 21.801 and 16.912 and 16.034

**Q.** What about the “split luciferase luminescence” value (PYR1^DIAZI; [Ligand] (uM) 1000) of the same molecule?
**A.** 25.73 and 20.742 and 19.283

**Q.** And the “split luciferase luminescence” value (PYR1^DIAZI; [Ligand] (uM) 10000)?
**A.** 25.492 and 21.692 and 23.422

B3: PYR1-pirimi: pirimiphos-responsive octuple PYR1 mutant (K59R, S92M, N119S, S122Q, E130G, F159T, A160T, V174A) (protein, UniProt O49686 1-191, looked up, variant K59R S92M N119S S122Q E130G F159T A160T V174A)
Abscisic acid receptor PYR1: MPSELTPEERSELKNSIAEFHTYQLDPGSCSSLHAQRIHAPPELVWSIVRRFDKPQTYRHFIKSCSVEQNFEMRVGCTRDVIVISGLPANTMTERLDILDDERRVTGFSIIGGEHRLTSYKQVTTVHRFGKENRIWTVVLESYVVDMPEGNSEDDTRMTTDTVVKLNLQKLATAAEAMARNSGDGSGSQVT
**Q.** B3 was tested. Which “split luciferase luminescence” value (PYR1^PIRI; [Ligand] 0.01) did it give?
**A.** 2.798 and 2.193 and 2.504

**Q.** What about the “split luciferase luminescence” value (PYR1^PIRI; [Ligand] 0.1) of the same molecule?
**A.** 2.824 and 1.934 and 2.89

**Q.** What about the “split luciferase luminescence” value (PYR1^PIRI; [Ligand] 1) of the same molecule?
**A.** 4.065 and 3.256 and 4.278

**Q.** And the “split luciferase luminescence” value (PYR1^PIRI; [Ligand] 10)?
**A.** 10.289 and 6.672 and 8.183

**Q.** What about the “split luciferase luminescence” value (PYR1^PIRI; [Ligand] 100) of the same molecule?
**A.** 22.748 and 20.257 and 17.606

**Q.** What about the “split luciferase luminescence” value (PYR1^PIRI; [Ligand] 1000) of the same molecule?
**A.** 23.566 and 22.462 and 20.41

**Q.** And the “split luciferase luminescence” value (PYR1^PIRI; [Ligand] 10000)?
**A.** 23.974 and 20.5 and 20.202
